Measurements from patent publication US6319929A, “Suksdorfin analogs, compositions thereof, and methods for making and using thereof” (priority 1998, dated 2001).
Like-named read-outs stand apart in the source and are kept apart here.

Experiments:
[1] = test system: HIV-1 replication in H9 cells; experiment: HIV-1 replication inhibition in acutely infected H9 lymphocytes (p24 antigen ELISA); assay type: cell-based, HIV-1 (IIIB strain); settings: for anti-HIV activity in H9 cells (in words): acutely infected H9 cells
In short: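 H9 T cells exposed to HIV-1 IIIB (0.01-0.1 TCID50/cell) for 1 h at 37° C, washed, then grown with compound for 3-4 days at 37° C. Toxicity taken from cell counts of uninfected cultures and virus from p24 ELISA of supernatants. EC50 and IC50 were read graphically from concentration versus percent inhibition plots.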

[2] = test system: chronically HIV-1 infected ACH-2 cells; experiment: Virus expression from chronically HIV-1 infected T cell line ACH-2 (p24 antigen ELISA); assay type: cell-based; settings: for effect on virus expression of PMA-stimulated ACH-2 cells (in words): with PMA; for induction of virus expression from ACH-2 cells (in words): without PMA
Description: (§1) Effects of suksdorfin analogs on Chronically HIV-1 infected cells. The experimental design is as follows: The phorbol ester, PMA (10^-8 M) and various concentrations of suksdorfin were either added or not added to both the chronically HIV-1 infected T cell line (ACH-2) and to the chronically HIV-1 infected monocytic cell line (U1). Cell-free supernatant was collected 72 hours post culture for p24 antigen ELISA.
Results (Table 11) from adding compound 16 to the chronically HIV-infected T cell line, ACH-2, according to methods in above examples. ACH-2 are a chronically HIV-1 infected T cell line. It was derived from A3.01 cells which is a subclone of the CEM cell line. The data below indicates the following points:
(§2) Chronically HIV-1 infected cell lines. HIV-1 chronically infected T cell line, ACH-2^12, and HIV-1 chronically infected promonocytic cell line, U1 13, were continuously maintained in RPMI 1640 with 10% fetal calf serum (FCS). For experiments, the cell lines were only used in the […] of growth. Cells (0.5×10^6 cells/well) and either various concentrations of suksdorfin or medium alone were added to 24-well plates in the presence or absence of PMA (10^-8 M). After 72 hours at 37° C. and 5% CO2, an aliquot of the cell-free supernatants were collected and analyzed for p24 antigen by ELISA (see below for details of p24 antigen ELISA).

[3] = test system: chronically HIV-1 infected U1 cells; experiment: Virus expression from chronically HIV-1 infected monocytic cell line U1 (p24 antigen ELISA); assay type: cell-based; settings: for effect on virus expression of PMA-stimulated U1 cells (in words): with PMA; for induction of virus expression from U1 cells (in words): without PMA
Description: as §1
Compound 16 was also assayed on ACH-2 (chronically HIV-1 infected T cell line). U1 cells are also chronically HIV-1 infected cells but they are from the monocytic cell line, U937. The data presented in Table 8 indicates the following points:
as §2

Compound: CC(=O)O[C@@H]1[C@H](OC(=O)CC(C)C)c2c(ccc3ccc(=O)oc23)OC1(C)C [Suksdorfin, suksdorfin]
- EC50 ([1]; Human immunodeficiency virus 1, H9, Table 17, acutely infected H9 lymphocytes, read-out: EC50): 1300 nM
- EC50 ([1]; Human immunodeficiency virus 1, H9, acutely infected H9 cells, concentration which inhibits viral replication by 50%, Inactive = No suppression of HIV-1 replication in H9 cells, read-out: EC50): 1300 nM
- EC50 ([1]; Human immunodeficiency virus 1, H9, earlier value, read-out: EC50 (value before increase)): 0.5 to 0.8 µg/mL
- IC50 ([1]; Human immunodeficiency virus 1, Table 14, concentration which inhibits viral replication by 50%, Inactive = No suppression of HIV-1 replication in H9 cells, read-out: IC50 (μM)^b): 1.3 µM
- Therapeutic Index ([1]; IC50 for cell growth inhibition divided by EC50 for HIV inhibition, H9): > 40
- Therapeutic Index ([1]; Table 14): > 40.0
- Therapeutic Index ([1]; Table 17, H9): > 40
- anti-HIV activity in H9 cells (in words) [1]: suppressed virus replication
- anti-HIV activity in H9 cells (in words) ([1]; listed as 1): potent anti-HIV-1 activity at nontoxic concentrations
- P24 ([2]; ACH-2, +PMA, 0.16 μg/ml): 50,775 pg/ml
- P24 ([2]; ACH-2, +PMA, 0.8 μg/ml): 55,910 pg/ml
- P24 ([2]; ACH-2, +PMA, 4 μg/ml): 61,235 pg/ml
- P24 ([2]; ACH-2, +PMA, 20 μg/ml): 49,914 pg/ml
- P24 ([2]; ACH-2, -PMA, 0.16 μg/ml): 3,688 pg/ml
- P24 ([2]; ACH-2, -PMA, 0.8 μg/ml): 3,821 pg/ml
- P24 ([2]; ACH-2, -PMA, 4 μg/ml): 4,723 pg/ml
- P24 ([2]; ACH-2, -PMA, 20 μg/ml): 4,541 pg/ml
- effect on virus expression of PMA-stimulated ACH-2 cells (in words) [2]: no significant alteration in the level of virus expression
- effect on virus expression of PMA-stimulated ACH-2 cells (in words) ([2]; listed as 1): no alteration in the level of virus expression
- induction of virus expression from ACH-2 cells (in words) [2]: The answer is no
- induction of virus expression from ACH-2 cells (in words) ([2]; listed as 1): no increase in the induction of virus expression
- P24 ([3]; U1, +PMA, 0.16 μg/ml): 6,611 pg/ml
- P24 ([3]; U1, +PMA, 0.8 μg/ml): 7,360 pg/ml
- P24 ([3]; U1, +PMA, 4 μg/ml): 9,728 pg/ml
- P24 ([3]; U1, +PMA, 20 μg/ml): 5,096 pg/ml
- P24 ([3]; U1, -PMA, 0.16 μg/ml): 0 pg/mL
- P24 ([3]; U1, -PMA, 0.8 μg/ml): 0 pg/mL
- P24 ([3]; U1, -PMA, 4 μg/ml): 0 pg/mL
- P24 ([3]; U1, -PMA, 20 μg/ml): 0 pg/mL
- effect on virus expression of PMA-stimulated U1 cells (in words) [3]: no significant alteration in the level of virus expression
- effect on virus expression of PMA-stimulated U1 cells (in words) ([3]; listed as 1): no alteration in the level of virus expression
- induction of virus expression from U1 cells (in words) [3]: The answer is no
- induction of virus expression from U1 cells (in words) ([3]; listed as 1): no increase in the induction of virus expression
